Measured values taken from patent publication US12448383B2, “Compounds and methods for treatment of viral infections” (priority 2022, dated 2025).

Experiments:
[1] = system: Respiratory syncytial virus recombinant with luciferase (RSV-Luc5) in HEp-2 cells; assay: microbe, parasite or virus in culture; format: cell-based; conditions: human respiratory syncytial virus, HEp-2, 72 h, read-out: RSV Hep2 EC50
[2] = system: SARS Coronavirus 2 recombinant with NanoLuc (SARS-CoV2-NLuc) in A549-hACE2 cells; assay: organism not typed; format: cell-based; conditions: 48 h; read-out: SARS-CoV2 EC50
[3] = system: Respiratory syncytial virus recombinant with luciferase (RSV-Luc5) in Normal Human Bronchial Epithelial (NHBE) cells; assay: microbe, parasite or virus in culture; format: cell-based; conditions: 72 h, read-out: RSV NHBE EC50
[4] = CC50 MT4 cytotoxicity (Cell-Titer Glo); format: cell-based; conditions: human
Method: Cytotoxicity of the compounds was determined in uninfected cells using the cell viability reagent in a similar fashion as described before for other cell types (Cihlar et al., Antimicrob Agents Chemother. 2008, 52(2):655-65). HEp-2 (1.5×10^3 cells/well) and MT-4 (2×10^3 cells/well) cells were plated in 384-well plates and incubated with the appropriate medium containing 3-fold serially diluted compound ranging from 15 nM to 100,000 nM. Cells were cultured for 4-5 days at 37° C. Following the incubation, the cells were allowed to equilibrate to 25° C., and cell viability was determined by adding Cell-Titer Glo viability reagent. The mixture was incubated for 10 min, and the luminescence signal was quantified using an Envision plate reader. Untreated cell and cells treated at 2 μM puromycin (Sigma, St. Louis, MO) serve as 100% and 0% cell viability control, respectively. The percent of cell viability was calculated for each tested compound concentration relative to the 0% and 100% controls and the CCso value was determined by non-linear regression as a compound concentration reducing the cell viability by 50%.

[5] = GI S9 stability - no PMSF; format: in vitro ADME; conditions: pH 7.4; human intestinal S9, PMSF-free; read-out: GIS9-HUMAN-NoPMSF T1/2
Method: Duplicate aliquots of test compound or positive control substrate (GS-7340) were added to S9 stock diluted with 100 mM phosphate buffered saline, pH 7.4, to obtain a protein concentration of 1.0 mg/mL. The S9 metabolic reactions were initiated by the addition of the substrates to the S9 reaction mixture to a final concentration of 2 μM. At 0, 10, 20, 30, 60 and 120 min, […] aliquots of the reaction mixture were transferred to plates containing […] of IS/Q solution. After quenching, the plates were centrifuged at 3000 g for 30 minutes, and 150 μL aliquots of each supernatant were diluted with 150 μL water. Aliquots ([…]) of the diluted supernatant were analyzed on a Thermo Q-Exactive mass spectrometer as described below. GI S9 Stability—No phenylmethylsulfonyl fluoride (PMSF): Similar to the procedure described above, test compounds were incubated at 2 μM with 1 mg/mL PMSF-free Intestinal S9 fractions. Samples are removed at 6 time points over the course of a 120 min experiment and the parent compound disappreance and reference compound A formation is determined by mass spectrometry.
Example K: Liquid Chromatography/Mass Spectroscopy Methods for S9 and Plasma Stability
Quantification of test compounds, Reference Compound A (S9 stability assay nucleoside metabolite), and controls was performed by analyte/internal standard peak area ratio (PAR) values measured on a Thermo Q-Exactive mass spectrometer coupled to a Dionex UltiMate 3000 HPLC with a Leap Technologies HTC PAL autosampler. The column used for analysis of test compounds and Reference Compound A was a Waters Acquity BEH C18 ([…] particle size, 2.1′50 mm). The column used for control (GS-7340) was a Thermo Hypersil GOLD ([…] particle size, 2.1′50 mm). Mobile phase A consisted of 0.1% (v/v) formic acid in water. Mobile phase B consisted of 0.1% (v/v) formic acid in acetonitrile. Elution of analytes was achieved by a series of linear gradients of acetonitrile in water containing 0.1°(v/v) formic acid. The mass spectrometer was calibrated on a weekly basis and mass tolerance of 5 ppm was used.

Plasma stability = format: in vitro ADME; design: unit not given here; conditions: 37° C., 2 μM substrate
Method: At 0.05, 0.5, 1, 2, 3 and 4 hr, […] aliquots of the reaction mixture were transferred to plates containing […] of IS/Q quenching solution. After quenching, the plates were centrifuged at 3000 g for 30 minutes, and 150 μL supernatant was diluted with 150 μL water. Aliquots ([…]) of the diluted supernatant were analyzed on a Thermo Q-Exactive mass spectrometer as described below.
Mobile phase A consisted of 0.1% (v/v) formic acid in water. Mobile phase B consisted of 0.1% (v/v) formic acid in acetonitrile. Elution of analytes was achieved by a series of linear gradients of acetonitrile in water containing 0.1°(v/v) formic acid. The mass spectrometer was calibrated on a weekly basis and mass tolerance of 5 ppm was used.

[6] = system: Caco-2 cells (clone C2BBe1); assay: CACO-2 permeability; format: in vitro ADME; design: unit not given here; conditions: for DM Caco2 A to B: apical to basolateral, donor pH 6.5, receiver pH 7.4; for DM Caco2 B to A: basolateral to apical
Method: Pre-plated Caco-2 cells (clone C2BBel) were obtained from Sigma-Aldrich, Inc. (Atlanta, GA). Cell monolayers were grown to confluence on collagen-coated, microporous, polycarbonate membranes in 24-well transwell plates for 21 days. The permeability assay buffer in donor wells was Hanks' balanced salt solution (HBSS) containing 10 mM HEPES and 15 mM glucose at a pH of 6.5 containing 200 μM BNPP. The receiver wells used HBSS buffer containing 10 mM HEPES and 15 mM glucose at a pH of 7.4 and supplemented with 1°% BSA. After an initial equilibration with transport buffer, TEER values were read to test membrane integrity. The experiment was started by the addition of buffers containing test compounds, 200 μl and 1000 μl in the apical and basolateral chamber, respectively. At 0- and 2-hour post dose, 10 μL was sampled from donor compartment and was immediately diluted in 190 μL of 20% methanol. At 1 and 2 hours post dose, 100 μl of solution was taken from the receiver compartments and was immediately diluted in 100 μl of 20% methanol. Removed buffer was replaced with fresh buffer and a correction was applied to all calculations for the removed material. Each compound was tested in 2 separate replicate wells for each condition. All samples were then extracted with 400 μl 100% acetonitrile with internal standard to precipitate protein. Cells were dosed on the apical or basolateral side to determine forward (A to B) and reverse (B to A) permeability. To test for non-specific binding and compound instability, the total amount of drug was quantitated at the end of the experiment and compared to the material present in the original dosing solution as a percent recovery. […] Samples were analyzed by LC-MS/MS.

Row | Compound | EC50 [1] | EC50 [2] | EC50 [3] | CC50 [4] | half-life at 2 µM [5] | STA Human Plasma 37 (Plasma stability) | DM Caco2 A to B [6] | DM Caco2 B to A [6]
1 | CC(C)COC(=O)OC[C@H]1O[C@@](C#N)(c2ccc3c(N)ncnn23)[C@@H]2OC(=O)O[C@@H]21 [Compound 17, ((3aR,4R,6R,6aR)-6-(4-aminopyrrolo[2,1-f][1,2,4]triazin-7-yl)-6-cyano-2-oxotetrahydrofuro[3,4-d][1,3]dioxol-4-yl)methyl isobutyl carbonate] | 0.412 µM | 0.814 µM | 1.9 µM | > 50 µM | – | – | – | –
2 | CC(C)OC(=O)OC[C@H]1O[C@@](C#N)(c2ccc3c(NC(=O)OC(C)(C)C)ncnn23)[C@H](OC(=O)OC(C)C)[C@@H]1OC(=O)OC(C)C [Compound 80, tert-butyl (7-((2R,3R,4R,5R)-2-cyano-3,4-bis((isopropoxycarbonyl)oxy)-5-(((isopropoxycarbonyl)oxy)methyl)tetrahydrofuran-2-yl)pyrrolo[2,1-f][1,2,4]triazin-4-yl)carbamate] | – | > 50 µM | 2.04 µM | > 50 µM | 0.847 min | 604.23 | 1.35 | 0.95
3 | Cc1ccc(C(C)C)c(OC(=O)OC[C@H]2O[C@@](C#N)(c3ccc4c(N)ncnn34)[C@H](O)[C@@H]2O)c1 [Compound 82, ((2R,3S,4R,5R)-5-(4-aminopyrrolo[2,1-f][1,2,4]triazin-7-yl)-5-cyano-3,4-dihydroxytetrahydrofuran-2-yl)methyl (2-isopropyl-5-methylphenyl) carbonate] | – | 1.55 µM | 2.41 µM | > 50 µM | 2 min | 193.22 | 2.73 | 20.67
4 | CC(C)[C@@H]1CC[C@@H](C)C[C@H]1OC(=O)OC[C@H]1O[C@@](C#N)(c2ccc3c(N)ncnn23)[C@H](O)[C@@H]1O [Compound 83, ((2R,3S,4R,5R)-5-(4-aminopyrrolo[2,1-f][1,2,4]triazin-7-yl)-5-cyano-3,4-dihydroxytetrahydrofuran-2-yl)methyl ((1R,2S,5R)-2-isopropyl-5-methylcyclohexyl) carbonate] | – | 24.5 µM | 2.32 µM | 21 µM | 12.1 min | 1584 | 5.3 | 25.42
5 | CC(C)OC(=O)OC[C@H]1O[C@@](C#N)(c2ccc3c(N)ncnn23)[C@@H]2OC(c3ccccc3)O[C@@H]21 (stereo partly drawn) [Compound 100, [(3aR,4R,6R,6aR)-4-(4-aminopyrrolo[2,1-f][1,2,4]triazin-7-yl)-4-cyano-2-phenyl-6,6a-dihydro-3aH-furo[3,4-d][1,3]dioxol-6-yl]methyl isopropyl carbonate] | > 50 µM | – | 16 µM | > 50 µM | – | – | 11.73 | 22.71
6 | CC(C)OC(=O)OC[C@H]1O[C@@](C#N)(c2ccc3c(N)ncnn23)[C@H](O)[C@@H]1OC(=O)CCCCCCC(=O)O [Compound 130, 8-(((2R,3S,4R,5R)-5-(4-aminopyrrolo[2,1-f][1,2,4]triazin-7-yl)-5-cyano-4-hydroxy-2-(((isopropoxycarbonyl)oxy)methyl)tetrahydrofuran-3-yl)oxy)-8-oxooctanoic acid] | – | 9.04 µM | 2.96 µM | > 50 µM | 1.59 min | 409.28 | 0.12 | 2.54
7 | CCOC(=O)OC[C@H]1O[C@@](C#N)(c2ccc3c(NC(=O)OCc4ccccc4)ncnn23)[C@H](O)[C@@H]1O [Compound 131, benzyl (7-((2R,3R,4S,5R)-2-cyano-5-(((ethoxycarbonyl)oxy)methyl)-3,4-dihydroxytetrahydrofuran-2-yl)pyrrolo[2,1-f][1,2,4]triazin-4-yl)carbamate] | – | 8.26 µM | 4.79 µM | > 50 µM | 2.64 min | 150.92 | 2.01 | 15.52
8 | CCOC(=O)OC[C@H]1O[C@@](C#N)(c2ccc3c(N)ncnn23)[C@@H]2OC(CC)O[C@@H]21 (stereo partly drawn) [Compound 132, ((3aR,4R,6R,6aR)-6-(4-aminopyrrolo[2,1-f][1,2,4]triazin-7-yl)-6-cyano-2-ethyltetrahydrofuro[3,4-d][1,3]dioxol-4-yl)methyl ethyl carbonate] | – | > 50 µM | > 50 µM | > 50 µM | 0.624 min | 12.304 | 12.34 | 13.86
9 | COC(=O)O[C@H]1[C@@H](OC(=O)OC)[C@](C#N)(c2ccc3c(N)ncnn23)O[C@@H]1COC(=O)OC(C)C [Compound 135, (2R,3R,4R,5R)-2-(4-aminopyrrolo[2,1-f][1,2,4]triazin-7-yl)-2-cyano-5-(((isopropoxycarbonyl)oxy)methyl)tetrahydrofuran-3,4-diyl dimethyl bis(carbonate)] | – | > 50 µM | > 50 µM | > 50 µM | 0.653 min | 96.462 | 3.87 | 18.05
10 | C=CCCOC(=O)O[C@H]1[C@@H](OC(=O)OCCC=C)[C@](C#N)(c2ccc3c(N)ncnn23)O[C@@H]1COC(=O)OC(C)C [Compound 136, (2R,3R,4R,5R)-2-(4-aminopyrrolo[2,1-f][1,2,4]triazin-7-yl)-2-cyano-5-(((isopropoxycarbonyl)oxy)methyl)tetrahydrofuran-3,4-diyl di(but-3-en-1-yl) bis(carbonate)] | – | 4.7 µM | 2.03 µM | > 50 µM | 1.01 min | 463.08 | 4.33 | 5.7
